Experiments:
[1] = biological target: Histone-lysine N-methyltransferase ASH1L (Homo sapiens) (UniProt Q9NR48); assay: Selectivity interaction (Methyltransferase screen (Scintillation proximity assays)) EUB0000255b ASH1L
[2] = biological target: Receptor-type tyrosine-protein kinase FLT3 (Homo sapiens) (UniProt P36888); assay: Selectivity interaction (KinomeScan (DiscoverX)) EUB0000229b FLT3; details: at 10 µM
[3] = biological target: Casein kinase II subunit alpha (Homo sapiens, UniProt P68400); assay: Selectivity interaction (KinomeScan (DiscoverX)) EUB0000229b CSNK2A1; details: at 10 µM
Casein kinase II subunit alpha, sequence (P68400 whole entry, looked up): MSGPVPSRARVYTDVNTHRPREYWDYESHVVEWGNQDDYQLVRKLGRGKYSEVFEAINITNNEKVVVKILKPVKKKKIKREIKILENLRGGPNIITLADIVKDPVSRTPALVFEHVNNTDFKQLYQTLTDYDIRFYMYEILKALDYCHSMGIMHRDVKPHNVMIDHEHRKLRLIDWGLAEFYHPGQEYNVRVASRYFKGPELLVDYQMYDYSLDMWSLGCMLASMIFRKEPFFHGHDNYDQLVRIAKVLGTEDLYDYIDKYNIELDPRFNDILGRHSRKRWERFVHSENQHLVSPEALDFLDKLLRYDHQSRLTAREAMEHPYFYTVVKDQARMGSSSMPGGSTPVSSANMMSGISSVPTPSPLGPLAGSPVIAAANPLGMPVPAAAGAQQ

[4] = biological target: Serine/threonine-protein kinase SIK3 (Homo sapiens) (UniProt Q9Y2K2); assay: Selectivity interaction (KinomeScan (DiscoverX)) EUB0000092b SIK3; details: at 10 µM
[5] = biological target: Ephrin type-A receptor 5 (Homo sapiens) (UniProt P54756); assay: Selectivity interaction (KinomeScan (DiscoverX)) EUB0000092b EPHA5; details: at 10 µM
Ephrin type-A receptor 5 (Homo sapiens), sequence (P54756 whole entry): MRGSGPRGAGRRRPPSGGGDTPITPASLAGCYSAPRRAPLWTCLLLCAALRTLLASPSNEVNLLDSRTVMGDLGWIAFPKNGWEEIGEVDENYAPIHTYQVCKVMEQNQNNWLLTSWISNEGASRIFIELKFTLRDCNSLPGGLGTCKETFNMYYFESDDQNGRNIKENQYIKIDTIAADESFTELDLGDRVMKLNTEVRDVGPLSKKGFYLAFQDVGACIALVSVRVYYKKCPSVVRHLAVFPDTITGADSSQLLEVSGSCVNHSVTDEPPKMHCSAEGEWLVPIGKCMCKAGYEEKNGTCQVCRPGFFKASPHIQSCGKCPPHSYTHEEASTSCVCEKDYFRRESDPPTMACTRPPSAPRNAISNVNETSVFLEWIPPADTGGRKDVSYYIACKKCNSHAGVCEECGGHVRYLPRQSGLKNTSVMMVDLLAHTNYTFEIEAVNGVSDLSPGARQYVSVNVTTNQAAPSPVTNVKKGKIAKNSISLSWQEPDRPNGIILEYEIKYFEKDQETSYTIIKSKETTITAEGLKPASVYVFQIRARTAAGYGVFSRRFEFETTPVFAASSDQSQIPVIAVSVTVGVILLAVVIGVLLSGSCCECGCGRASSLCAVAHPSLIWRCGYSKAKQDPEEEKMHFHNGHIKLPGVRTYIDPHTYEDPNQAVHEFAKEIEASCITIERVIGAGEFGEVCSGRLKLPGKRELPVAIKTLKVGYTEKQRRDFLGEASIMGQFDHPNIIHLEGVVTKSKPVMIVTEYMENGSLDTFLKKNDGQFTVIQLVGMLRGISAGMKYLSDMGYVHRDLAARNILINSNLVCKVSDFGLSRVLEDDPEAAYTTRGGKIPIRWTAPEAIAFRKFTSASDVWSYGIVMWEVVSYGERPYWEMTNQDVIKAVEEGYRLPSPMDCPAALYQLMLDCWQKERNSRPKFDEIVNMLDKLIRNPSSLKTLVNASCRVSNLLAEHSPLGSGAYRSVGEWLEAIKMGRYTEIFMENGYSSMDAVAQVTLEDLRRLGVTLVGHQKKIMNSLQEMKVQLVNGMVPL

[6] = biological target: RAC-gamma serine/threonine-protein kinase (Homo sapiens, UniProt Q9Y243); assay: Selectivity interaction (ProQinase) EUB0000171b AKT3
RAC-gamma serine/threonine-protein kinase, sequence (Q9Y243 whole entry): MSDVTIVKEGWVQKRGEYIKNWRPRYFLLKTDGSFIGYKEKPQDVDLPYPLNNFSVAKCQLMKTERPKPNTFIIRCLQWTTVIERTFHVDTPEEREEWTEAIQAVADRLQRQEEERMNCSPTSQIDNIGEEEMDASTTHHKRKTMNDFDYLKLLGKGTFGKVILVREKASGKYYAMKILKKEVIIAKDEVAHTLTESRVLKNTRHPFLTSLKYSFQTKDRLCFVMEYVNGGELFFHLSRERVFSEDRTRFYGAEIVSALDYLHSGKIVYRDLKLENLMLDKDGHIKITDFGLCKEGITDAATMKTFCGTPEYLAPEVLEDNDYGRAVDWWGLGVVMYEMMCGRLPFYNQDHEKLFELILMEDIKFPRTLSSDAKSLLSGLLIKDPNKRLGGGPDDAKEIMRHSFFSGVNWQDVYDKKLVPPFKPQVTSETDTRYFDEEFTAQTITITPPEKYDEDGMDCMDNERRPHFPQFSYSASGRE

[7] = biological target: Calcium/calmodulin-dependent protein kinase kinase 2 (Homo sapiens) (UniProt Q96RR4); assay: Selectivity interaction (ProQinase) EUB0000171b CAMKK2
Calcium/calmodulin-dependent protein kinase kinase 2 (Homo sapiens), sequence (Q96RR4 2-588 limits assumed): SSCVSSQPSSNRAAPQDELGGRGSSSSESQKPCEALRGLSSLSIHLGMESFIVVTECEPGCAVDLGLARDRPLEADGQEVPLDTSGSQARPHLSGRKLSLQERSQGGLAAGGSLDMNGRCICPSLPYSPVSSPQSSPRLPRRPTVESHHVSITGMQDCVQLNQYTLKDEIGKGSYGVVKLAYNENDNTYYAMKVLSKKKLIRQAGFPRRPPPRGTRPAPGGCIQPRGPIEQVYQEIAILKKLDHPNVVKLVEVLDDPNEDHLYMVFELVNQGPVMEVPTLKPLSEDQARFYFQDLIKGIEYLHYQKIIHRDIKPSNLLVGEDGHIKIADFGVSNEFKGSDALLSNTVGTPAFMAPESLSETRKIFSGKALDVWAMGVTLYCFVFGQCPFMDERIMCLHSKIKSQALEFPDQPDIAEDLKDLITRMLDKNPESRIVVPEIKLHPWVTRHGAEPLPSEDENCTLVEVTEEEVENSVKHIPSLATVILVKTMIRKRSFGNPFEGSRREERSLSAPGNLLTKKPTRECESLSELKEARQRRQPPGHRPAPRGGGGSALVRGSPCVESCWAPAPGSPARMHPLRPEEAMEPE

[8] = biological target: Beta-2 adrenergic receptor (Homo sapiens, UniProt P07550); assay: Selectivity interaction (Panel of kinases, GPCRs, ion channels and transporters (enzymatic assay)) EUB0000266bCl ADRB2
Beta-2 adrenergic receptor, sequence (P07550 whole entry, looked up): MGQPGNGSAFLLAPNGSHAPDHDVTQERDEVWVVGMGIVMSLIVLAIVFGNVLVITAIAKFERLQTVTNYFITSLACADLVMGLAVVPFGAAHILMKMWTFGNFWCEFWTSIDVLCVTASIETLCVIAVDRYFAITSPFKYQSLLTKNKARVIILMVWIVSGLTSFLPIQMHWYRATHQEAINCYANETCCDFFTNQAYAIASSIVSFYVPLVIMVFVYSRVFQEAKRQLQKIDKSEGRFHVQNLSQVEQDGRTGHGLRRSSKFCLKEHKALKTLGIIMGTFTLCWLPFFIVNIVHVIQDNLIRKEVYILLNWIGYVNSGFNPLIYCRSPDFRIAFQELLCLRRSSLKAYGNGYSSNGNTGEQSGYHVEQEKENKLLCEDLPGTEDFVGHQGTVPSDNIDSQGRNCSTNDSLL

[9] = biological target: Mitogen-activated protein kinase kinase kinase kinase 5 (Homo sapiens) (UniProt Q9Y4K4); assay: Selectivity interaction (Kinase panel (Z-LYTE Assay)) EUB0001632a MAP4K5; details: at 10 µM
Mitogen-activated protein kinase kinase kinase kinase 5 (Homo sapiens), sequence (Q9Y4K4 whole entry, looked up): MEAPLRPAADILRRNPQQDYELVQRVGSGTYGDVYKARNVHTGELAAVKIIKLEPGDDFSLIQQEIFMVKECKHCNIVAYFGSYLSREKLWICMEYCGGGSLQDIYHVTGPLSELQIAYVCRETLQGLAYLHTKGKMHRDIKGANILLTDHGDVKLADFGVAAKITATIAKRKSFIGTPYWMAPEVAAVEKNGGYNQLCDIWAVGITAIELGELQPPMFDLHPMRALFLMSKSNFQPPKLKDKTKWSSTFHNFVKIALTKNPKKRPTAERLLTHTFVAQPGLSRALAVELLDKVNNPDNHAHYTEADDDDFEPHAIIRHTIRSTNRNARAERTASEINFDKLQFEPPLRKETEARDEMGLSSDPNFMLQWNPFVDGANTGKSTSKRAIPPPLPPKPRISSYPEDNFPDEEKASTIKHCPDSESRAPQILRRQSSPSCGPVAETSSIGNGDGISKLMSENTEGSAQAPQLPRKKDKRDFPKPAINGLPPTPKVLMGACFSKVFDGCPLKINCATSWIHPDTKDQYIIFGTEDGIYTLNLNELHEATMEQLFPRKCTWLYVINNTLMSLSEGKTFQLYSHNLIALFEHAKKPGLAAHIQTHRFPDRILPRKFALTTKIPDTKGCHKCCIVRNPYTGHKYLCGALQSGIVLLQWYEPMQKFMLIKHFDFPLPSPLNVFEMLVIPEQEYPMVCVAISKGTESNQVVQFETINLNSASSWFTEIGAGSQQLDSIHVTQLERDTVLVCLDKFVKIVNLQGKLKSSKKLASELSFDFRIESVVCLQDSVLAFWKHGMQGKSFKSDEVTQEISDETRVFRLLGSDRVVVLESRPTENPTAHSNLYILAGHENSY

[10] = biological target: Cyclin-dependent kinase 2 (Homo sapiens, UniProt P24941); assay: Selectivity interaction (ActivX KiNativ screen (kinase selectivity in THP-1 cell lysates)) EUB0000639a CDK2; type: subcellular; details: lysate, at 0.04 µM
[11] = biological target: T1, Serine/threonine-protein kinase tousled-like 1 (Homo sapiens) (UniProt Q9UKI8); assay: Selectivity interaction (KinomeScan (DiscoverX)) EUB0001049a TLK1; details: at 1 µM
T1 sequence (whole entry): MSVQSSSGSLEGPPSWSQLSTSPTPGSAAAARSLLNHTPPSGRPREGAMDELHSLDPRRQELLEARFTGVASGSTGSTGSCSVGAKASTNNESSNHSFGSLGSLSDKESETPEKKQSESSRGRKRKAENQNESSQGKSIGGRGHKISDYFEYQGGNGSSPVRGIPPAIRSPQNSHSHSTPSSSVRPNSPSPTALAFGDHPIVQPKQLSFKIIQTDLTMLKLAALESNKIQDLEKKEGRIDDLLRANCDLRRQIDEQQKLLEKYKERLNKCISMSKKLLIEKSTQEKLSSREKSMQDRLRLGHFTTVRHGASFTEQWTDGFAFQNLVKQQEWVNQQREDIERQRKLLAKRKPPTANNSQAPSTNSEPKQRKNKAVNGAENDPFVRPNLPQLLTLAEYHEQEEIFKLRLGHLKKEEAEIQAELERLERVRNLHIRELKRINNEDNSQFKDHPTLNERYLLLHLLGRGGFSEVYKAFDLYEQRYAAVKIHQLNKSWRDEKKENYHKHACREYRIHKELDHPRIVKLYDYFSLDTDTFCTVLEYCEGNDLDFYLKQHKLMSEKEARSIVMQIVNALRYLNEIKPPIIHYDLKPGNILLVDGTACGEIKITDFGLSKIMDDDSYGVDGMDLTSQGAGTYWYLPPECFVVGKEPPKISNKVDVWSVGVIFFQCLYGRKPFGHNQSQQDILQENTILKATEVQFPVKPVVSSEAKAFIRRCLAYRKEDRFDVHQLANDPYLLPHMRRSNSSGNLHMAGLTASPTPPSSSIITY

[12] = biological target: Serine/threonine-protein kinase WNK2 (Homo sapiens) (UniProt Q9Y3S1); assay: Selectivity interaction (KinomeScan (DiscoverX)) EUB0001049a WNK2; details: at 1 µM
[13] = biological target: High affinity nerve growth factor receptor (Homo sapiens, UniProt P04629); assay: Selectivity interaction (KinomeScan (DiscoverX)) EUB0001049a NTRK1; details: at 1 µM
[14] = biological target: Serine/threonine-protein kinase 33 (Homo sapiens) (UniProt Q9BYT3); assay: Selectivity interaction (KinomeScan (DiscoverX)) EUB0000695a STK33; details: at 100 nM
[15] = biological target: T2, Atypical kinase COQ8B, mitochondrial (Homo sapiens) (UniProt Q96D53); assay: Selectivity interaction (KinomeScan (DiscoverX)) EUB0000595a ADCK4; details: at 10 µM
T2 sequence (whole entry): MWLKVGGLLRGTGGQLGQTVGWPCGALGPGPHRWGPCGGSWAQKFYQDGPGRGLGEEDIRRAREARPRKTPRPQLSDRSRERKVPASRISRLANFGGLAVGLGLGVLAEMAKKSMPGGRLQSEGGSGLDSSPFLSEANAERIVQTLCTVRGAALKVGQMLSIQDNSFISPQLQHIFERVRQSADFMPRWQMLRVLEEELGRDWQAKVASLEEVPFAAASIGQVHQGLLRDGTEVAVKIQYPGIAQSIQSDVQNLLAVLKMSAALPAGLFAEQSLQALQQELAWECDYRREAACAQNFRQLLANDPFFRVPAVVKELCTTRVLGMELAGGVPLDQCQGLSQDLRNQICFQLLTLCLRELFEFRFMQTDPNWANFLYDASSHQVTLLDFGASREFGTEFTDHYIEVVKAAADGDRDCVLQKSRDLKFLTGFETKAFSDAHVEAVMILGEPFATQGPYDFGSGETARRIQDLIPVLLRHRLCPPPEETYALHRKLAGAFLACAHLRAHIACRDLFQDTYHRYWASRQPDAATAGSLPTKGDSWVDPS

[16] = biological target: Ephrin type-A receptor 5 (Homo sapiens) (UniProt P54756); assay: Selectivity interaction (KinomeScan (DiscoverX)) EUB0000045b EPHA5
[17] = tested on: Epidermal growth factor receptor (Homo sapiens), P00533 [UNDEFINED MUTATION]; assay: Selectivity interaction (KinomeScan (DiscoverX)) EUB0000045b EGFR; details: at 10 µM
Epidermal growth factor receptor (Homo sapiens), P00533 [UNDEFINED MUTATION], sequence (P00533 whole entry, looked up, change not shown): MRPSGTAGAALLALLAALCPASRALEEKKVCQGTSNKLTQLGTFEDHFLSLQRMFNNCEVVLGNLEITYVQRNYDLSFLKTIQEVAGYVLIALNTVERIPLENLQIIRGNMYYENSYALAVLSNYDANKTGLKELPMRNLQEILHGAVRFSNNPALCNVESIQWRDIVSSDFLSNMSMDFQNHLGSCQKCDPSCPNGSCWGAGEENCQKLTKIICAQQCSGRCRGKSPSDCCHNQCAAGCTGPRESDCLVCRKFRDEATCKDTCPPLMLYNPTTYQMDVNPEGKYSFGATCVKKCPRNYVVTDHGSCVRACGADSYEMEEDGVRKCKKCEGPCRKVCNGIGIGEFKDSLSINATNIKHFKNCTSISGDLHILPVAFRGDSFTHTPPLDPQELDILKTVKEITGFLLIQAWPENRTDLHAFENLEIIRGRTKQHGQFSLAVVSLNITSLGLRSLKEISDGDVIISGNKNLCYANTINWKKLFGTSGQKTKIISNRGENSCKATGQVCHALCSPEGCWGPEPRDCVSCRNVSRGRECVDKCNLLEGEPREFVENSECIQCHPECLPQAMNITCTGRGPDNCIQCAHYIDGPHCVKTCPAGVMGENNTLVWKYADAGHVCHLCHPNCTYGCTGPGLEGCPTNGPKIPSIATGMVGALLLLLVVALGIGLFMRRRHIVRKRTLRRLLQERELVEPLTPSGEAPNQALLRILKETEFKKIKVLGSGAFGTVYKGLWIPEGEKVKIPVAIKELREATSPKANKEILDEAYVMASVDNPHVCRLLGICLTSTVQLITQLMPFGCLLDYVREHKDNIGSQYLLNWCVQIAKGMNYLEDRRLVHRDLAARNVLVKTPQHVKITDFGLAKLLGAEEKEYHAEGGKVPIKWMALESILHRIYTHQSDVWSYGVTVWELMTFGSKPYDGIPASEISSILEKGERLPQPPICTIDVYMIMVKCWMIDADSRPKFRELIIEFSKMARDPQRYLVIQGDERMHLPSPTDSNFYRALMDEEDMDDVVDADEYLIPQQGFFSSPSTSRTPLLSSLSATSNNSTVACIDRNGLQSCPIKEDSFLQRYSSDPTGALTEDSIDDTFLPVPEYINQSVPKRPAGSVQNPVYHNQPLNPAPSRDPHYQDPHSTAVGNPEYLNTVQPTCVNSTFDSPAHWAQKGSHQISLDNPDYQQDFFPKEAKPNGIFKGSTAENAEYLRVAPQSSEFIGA

[18] = biological target: Cyclin-dependent kinase-like 3 (Homo sapiens) (UniProt Q8IVW4); assay: Selectivity interaction (KinomeScan (DiscoverX)) EUB0001619a CDKL3; details: at 1 µM
[19] = biological target: Mitogen-activated protein kinase kinase kinase kinase 5 (Homo sapiens) (UniProt Q9Y4K4); assay: Selectivity interaction (ActivX KiNativ screen (ex vivo kinase selectivity in human PBMCs)) EUB0001619a MAP4K5; type: cell-based; details: PBMC, at 1 µM

## COCCN1CCC(c2cc(CN(C)C(=O)c3cccc(Oc4ccccc4)c3)ccn2)CC1
[1]; at 1 µM
  % activity: > 95%
[1]; at 10 µM
  % activity: > 90%

## COc1cc(N(C)c2ccnc3ccc(C(F)(F)F)cc23)cc(OC)c1OC
[2]
  % binding: 85%
[3]
  % binding: 67%

## CCC(=O)N1CCN(c2ccc(-n3c(=O)ccc4cnc5ccc(-c6cnc7ccccc7c6)cc5c43)cc2C(F)(F)F)CC1
[4]
  % of control: 89%
[5]
  % of control: 100%

## C=CC(=O)Nc1cccc(C(=O)Nc2ccc(Nc3cc(-c4[nH]c(SC)nc4C)ccn3)cc2)c1
[6]; at 1 µM
  % of control: 95%
[6]; at 5 µM
  % of control: 90%
[7]; at 1 µM
  % of control: 83%
[7]; at 5 µM
  % of control: 86%

## CCn1c(-c2nc3cc(C(=O)N4CCCC(N)C4)ccc3n2C)cc2ccccc21 (stereo not drawn)
[8]
  pXC50: < 4.5 M

## Cn1cc(-n2cnc3c(NCc4nc5cc(Cl)c(Cl)cc5[nH]4)nc(N4CCOCC4)nc32)cn1
[9]
  % of control: 3.28%

## CC[C@@H]1[C@H](F)C(=O)N[C@@H]1COc1nccc2cc(C(N)=O)c(OC)cc12 [ZIMLOVISERTIB]
[10]
  % of inhibition: -1.2%

## COc1cc(Nc2nc(C)cc(-c3cnn4nc(OC)ccc34)n2)cc(C(F)(F)F)c1
[11]
  % of control: 100%
[12]
  % of control: 100%
[13]
  % of control: 100%

## Cc1cc(F)c(C(=O)Nc2cccc(-c3nncn3C(C)C)n2)cc1-n1cnc(C2CC2)c1
[14]
  % of control: 78%

## COCC(=O)NC/C=C/c1ccc2ncnc(Nc3ccc(Oc4ccc(C)nc4)c(C)c3)c2c1 [CP-724714]
[15]
  % of control: 98%

## C=CC(=O)Nc1cc(-n2c(=O)ccc3cnc4ccc(-c5ccc(NS(C)(=O)=O)cc5)cc4c32)ccc1C
[16]; at 1 µM
  % of control: 100%
[16]; at 10 µM
  % of control: 97%
[17]
  % of control: 57%

## N#Cc1cccc(-c2c[nH]c3ncnc(N4CCOCC4)c23)c1
[18]
  % of control: 100%
[19]
  % of inhibition: -13%

From ChEMBL document CHEMBL5465560, “Selectivity Literature for EUbOPEN Chemogenomic Library” (2024)
